Results reported in patent US20090029949A1, “GPCR Ligands Identified by Computational Modeling” (priority 2006, published 2009).
Read-outs that look alike come from different tables or passages of the source.

Columns and labels:
[1] = biological target: T1, WT S1P1 (Homo sapiens, UniProt P21453); test: [32P]S1P competition binding, HEK-293 cells, WT-S1P1; conditions: WT-S1P1, HEK-293 cells
Method: (§1) For the competition assays, HEK-293 cells were used. Briefly, 4×10^5 cells were plated in 24-well dishes and allowed to adhere overnight. The cells were then transfected with 0.4 μg of the cDNA using Lipofectamine 2000 (Invitrogen) and the transfection proceeded for 48 h. After washing the cells twice with ice-cold binding buffer (20 mM Tris-HCl, pH 7.4 and 150 mM NaCl), 0.1 nM [^32P]S1P and competing concentrations of cold S1P (1 nM-10 μM), resuspended in binding buffer+4% BSA, were applied to the cells and incubated on ice for 30 min. After washing the cells twice with ice-cold binding buffer+0.4% BSA, the cells were lysed with 0.5% SDS and equilibrated in scintillation fluid. The samples were measured in triplicate.

[2] = biological target: T2, S1P1 mutant F5.48G (Homo sapiens, UniProt P21453, F210G); test: [32P]S1P competition binding, HEK-293 cells, F5.48G; conditions: S1P1 F5.48G
T2 construct: expressed in transfected cells
T2 sequence (P21453 whole entry F210G): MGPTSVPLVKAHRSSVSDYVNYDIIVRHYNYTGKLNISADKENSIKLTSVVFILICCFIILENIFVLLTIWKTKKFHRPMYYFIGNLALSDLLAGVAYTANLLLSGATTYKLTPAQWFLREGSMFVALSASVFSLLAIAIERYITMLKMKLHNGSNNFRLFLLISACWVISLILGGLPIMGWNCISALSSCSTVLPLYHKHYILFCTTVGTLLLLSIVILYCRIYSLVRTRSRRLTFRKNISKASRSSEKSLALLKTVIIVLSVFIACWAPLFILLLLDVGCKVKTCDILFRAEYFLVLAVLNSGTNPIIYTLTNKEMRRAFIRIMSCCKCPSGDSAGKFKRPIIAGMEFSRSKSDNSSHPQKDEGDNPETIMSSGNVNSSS
Method: as §1

[3] = biological target: T3, S1P1 mutant V3.40T (Homo sapiens, UniProt P21453, V132T); test: [35S]GTPγS binding, S1P1 V3.40T; assay type: biochemical; conditions: S1P-induced, S1P1 V3.40T in RH7777 cells
T3 construct: expressed in transfected cells; host or cells: RH7777 (transient, pcDNA3.1)
T3 sequence (P21453 whole entry V132T): as the sequence (P21453 whole entry F210G) above, with V132T, G210F counted along it
Method: (§2) RH7777 and HEK-293 cells (ATCC, Manassas, Va.) were maintained in Dulbecco's modified minimal essential medium (DMEM) containing 10% fetal bovine serum (Hyclone, Logan, Utah). Cells (2×10^6) were transfected with 2 μg of plasmid DNA with Effectene (Qiagen, Valencia, Calif.) according to the manufacturer's instructions, for 24 h. Before ligand binding and receptor activation assays, the cells were washed twice with serum-free DMEM and serum-starved for at least 6 h.
(§3) S1P1 Receptor Activation Assays Receptor functional assays were performed in transiently transfected RH7777 cells by measuring S1P-activated [^35S]GTPγS binding as previously described (28).

[4] = biological target: S1P1 mutant V6.40A (Homo sapiens, UniProt P21453, V261A); test: [35S]GTPγS binding, S1P1 V6.40A; assay type: biochemical; parameters: expressed in transfected cells; host or cells: RH7777 (GTPγS); conditions: S1P-induced, S1P1 V6.40A in RH7777 cells
S1P1 mutant V6.40A, sequence (P21453 whole entry V261A): as the sequence (P21453 whole entry F210G) above, with G210F, V261A counted along it
Method: as §2, §3

[5] = biological target: T4, S1P1 mutant V6.37T (Homo sapiens, UniProt P21453, V258T); test: [35S]GTPγS binding, S1P1 V6.37T; assay type: biochemical; conditions: S1P-induced, S1P1 V6.37T in RH7777 cells
T4 construct: expressed in transfected cells; host or cells: RH7777 (transient, pcDNA3.1)
T4 sequence (P21453 whole entry V258T): as the sequence (P21453 whole entry F210G) above, with G210F, V258T counted along it
Method: as §2, §3

[6] = biological target: T5, S1P1 double mutant L3.43, 3.44G (Homo sapiens, UniProt P21453, L135G/L136G); test: [35S]GTPγS binding, S1P1 L3.43, 3.44G; assay type: biochemical; conditions: S1P-induced, S1P1 L3.43, 3.44G in RH7777 cells
T5 construct: expressed in transfected cells; host or cells: RH7777
T5 sequence (P21453 whole entry L135G/L136G): as the sequence (P21453 whole entry F210G) above, with L135G, L136G, G210F counted along it
Method: as §2, §3

[7] = biological target: S1P1 mutant L3.36E (Homo sapiens, UniProt P21453, L128E); test: [35S]GTPγS binding, S1P1 L3.36E; assay type: biochemical; parameters: expressed in transfected cells; host or cells: RH7777 (transient, pcDNA3.1); conditions: S1P-induced, S1P1 L3.36E in RH7777 cells
S1P1 mutant L3.36E, sequence (P21453 whole entry L128E): as the sequence (P21453 whole entry F210G) above, with L128E, G210F counted along it
Method: as §2, §3

[8] = biological target: T6, S1P1 mutant L5.51G (Homo sapiens, UniProt P21453, L213G); test: [35S]GTPγS binding, S1P1 L5.51G; assay type: biochemical; conditions: S1P-induced, S1P1 L5.51G in RH7777 cells
T6 construct: expressed in transfected cells; host or cells: RH7777 (transient, pcDNA3.1)
T6 sequence (P21453 whole entry L213G): as the sequence (P21453 whole entry F210G) above, with G210F, L213G counted along it
Method: as §2, §3

[9] = biological target: T7, S1P1 mutant L6.41E (Homo sapiens, UniProt P21453, L262E); test: [35S]GTPγS binding, S1P1 L6.41E; assay type: biochemical; conditions: S1P-induced, S1P1 L6.41E in RH7777 cells
T7 construct: expressed in transfected cells; host or cells: RH7777
T7 sequence (P21453 whole entry L262E): as the sequence (P21453 whole entry F210G) above, with G210F, L262E counted along it
Method: as §2, §3

[10] = biological target: T8, S1P1 mutant W6.48A (Homo sapiens, UniProt P21453, W269A); test: [35S]GTPγS binding, S1P1 W6.48A; assay type: biochemical; conditions: S1P-induced, S1P1 W6.48A in RH7777 cells
T8 construct: expressed in transfected cells
T8 sequence (P21453 whole entry W269A): as the sequence (P21453 whole entry F210G) above, with G210F, W269A counted along it
Method: as §2, §3

[11] = biological target: T9, S1P1 mutant F6.44G (Homo sapiens, UniProt P21453, F265G); test: [35S]GTPγS binding, S1P1 F6.44G; assay type: biochemical; conditions: S1P-induced, S1P1 F6.44G in RH7777 cells
T9 construct: expressed in transfected cells; host or cells: RH7777
T9 sequence (P21453 whole entry F265G): as the sequence (P21453 whole entry F210G) above, with G210F, F265G counted along it
Method: as §2, §3

[12] = biological target: T10, S1P1 mutant I5.41F (Homo sapiens, UniProt P21453, I203F); test: [35S]GTPγS binding, S1P1 I5.41F; assay type: biochemical; conditions: S1P-induced, S1P1 I5.41F in RH7777 cells
T10 construct: expressed in transfected cells; host or cells: RH7777 (transient, pcDNA3.1)
T10 sequence (P21453 whole entry I203F): as the sequence (P21453 whole entry F210G) above, with I203F, G210F counted along it
Method: as §2, §3

[13] = biological target: T1, WT S1P1; conditions: WT receptor, inventors' system (ref 28); read-out: apparent KD for S1P binding; cited from earlier work
[14] = biological target: T2, S1P1 mutant F5.48G; test: [32P]S1P radioligand binding, RH7777 cells, F5.48G; conditions: radioligand 50 nM, S1P1 F5.48G
Method: as §2
The S1P binding assays were done essentially as previously described (28). Transfected RH7777 cells (5×10^5) were incubated at 4° C. in 20 mM Tris-HCl (pH 7.5) binding buffer containing 100 mM NaCl, 15 mM NaF, protease inhibitor cocktail (Sigma-Aldrich), and 0.2 mg/ml essentially fatty-acid free BSA with 1 nM [^32P]S1P in 50 nM S1P for 40 min. Cells were centrifuged and washed twice in binding buffer. The final pellet was resuspended in 2:1 CHCl3/MeOH and the suspension was equilibrated in scintillation fluid overnight. Cell-bound radioactivity was measured by liquid scintillation counting using a Beckman LS5000 TA counter (Beckman Coulter, Irvine, Calif.). Specific binding was defined as the difference between total binding and non-specific binding (in the presence of 2-5 μM cold S1P). Standard errors were computed on the basis of triplicate samples from two simultaneous transfections.

[15] = biological target: T11, S1P1 mutant T5.49G (Homo sapiens, UniProt P21453, T211G); test: [35S]GTPγS binding, S1P1 T5.49G; assay type: biochemical; conditions: S1P-induced, S1P1 T5.49G in RH7777 cells
T11 construct: expressed in transfected cells; host or cells: RH7777 (transient, pcDNA3.1)
T11 sequence (P21453 whole entry T211G): as the sequence (P21453 whole entry F210G) above, with G210F, T211G counted along it
Method: as §2, §3

[16] = competition with cold S1P, read-out: KD + s.d.

T1 sequence (P21453 whole entry): as the sequence (P21453 whole entry F210G) above, with G210F counted along it

Bmax [1]: 2450 fmol
Kd [1, 16]: 38.7 nM
Bmax [2]: 2580 fmol
Kd [2, 16]: 20.2 nM
EC50 [3]: 13.8 ± 1.8 nM
Emax ([3]; read-out: % WT Emax + s.d.): 137%
EC50 [4]: 14.8 nM
Emax ([4]; read-out: % WT Emax + s.d.): 69%
EC50 [5]: 13 nM
Emax ([5]; read-out: % WT Emax + s.d.): 181%
% WT Emax + s.d. [6]: ∞
EC50 + s.d. [6]: ∞
EC50 [7]: 0.62 ± 0.46 nM
Emax ([7]; read-out: % WT Emax + s.d.): 39 ± 2.8%
EC50 [8]: 2.6 ± 2.1 nM
Emax ([8]; read-out: % WT Emax + s.d.): 46%
EC50 [9]: 4.1 ± 0.63 nM
Emax ([9]; read-out: % WT Emax + s.d.): 59%
EC50 [10]: 13 ± 4.2 nM
Emax ([10]; read-out: % WT Emax + s.d.): 34 ± 1.5%
% WT Emax + s.d. [11]: ∞
EC50 + s.d. [11]: ∞
EC50 [12]: 18.9 nM
Emax ([12]; read-out: % WT Emax + s.d.): 27%
[32P]S1P binding relative to WT [14]: > 50 % of the WT
EC50 [15]: 5.4 nM
Emax ([15]; read-out: % WT Emax + s.d.): 107%
SMILES: CCCCCCCCCCCCC/C=C/[C@@H](O)[C@@H](N)COP(=O)(O)O [S1P, Sphingosine 1-phosphate]
Kd [13]: 36 ± 2 nM
